This is an account of results in ChEMBL document CHEMBL5113448, “Synthesis and biological evaluation of 4H-benzo[e][1,3]oxazin-4-ones analogues of TGX-221 as inhibitors of PI3Kβ” (Bioorg Med Chem, 2022).

One may read the pIC50 as the negative decadic logarithm of the IC50, by convention in mol/L. Broadly, the inhibition is the drop in the measured response relative to a control, in per cent. Lower therefore signals little suppression.

pIC50: −log10 of the molar value.

In the first assay the target is Phosphatidylinositol 4,5-bisphosphate 3-kinase catalytic subunit beta isoform (Homo sapiens, UniProt P42338). Put plainly: Inhibition of PI3Kbeta (unknown origin) incubated for 60 mins in the presence of ATP by Kinase-Glo luminescence assay.
Phosphatidylinositol 4,5-bisphosphate 3-kinase catalytic subunit beta isoform, sequence (P42338 whole entry, canonical isoform): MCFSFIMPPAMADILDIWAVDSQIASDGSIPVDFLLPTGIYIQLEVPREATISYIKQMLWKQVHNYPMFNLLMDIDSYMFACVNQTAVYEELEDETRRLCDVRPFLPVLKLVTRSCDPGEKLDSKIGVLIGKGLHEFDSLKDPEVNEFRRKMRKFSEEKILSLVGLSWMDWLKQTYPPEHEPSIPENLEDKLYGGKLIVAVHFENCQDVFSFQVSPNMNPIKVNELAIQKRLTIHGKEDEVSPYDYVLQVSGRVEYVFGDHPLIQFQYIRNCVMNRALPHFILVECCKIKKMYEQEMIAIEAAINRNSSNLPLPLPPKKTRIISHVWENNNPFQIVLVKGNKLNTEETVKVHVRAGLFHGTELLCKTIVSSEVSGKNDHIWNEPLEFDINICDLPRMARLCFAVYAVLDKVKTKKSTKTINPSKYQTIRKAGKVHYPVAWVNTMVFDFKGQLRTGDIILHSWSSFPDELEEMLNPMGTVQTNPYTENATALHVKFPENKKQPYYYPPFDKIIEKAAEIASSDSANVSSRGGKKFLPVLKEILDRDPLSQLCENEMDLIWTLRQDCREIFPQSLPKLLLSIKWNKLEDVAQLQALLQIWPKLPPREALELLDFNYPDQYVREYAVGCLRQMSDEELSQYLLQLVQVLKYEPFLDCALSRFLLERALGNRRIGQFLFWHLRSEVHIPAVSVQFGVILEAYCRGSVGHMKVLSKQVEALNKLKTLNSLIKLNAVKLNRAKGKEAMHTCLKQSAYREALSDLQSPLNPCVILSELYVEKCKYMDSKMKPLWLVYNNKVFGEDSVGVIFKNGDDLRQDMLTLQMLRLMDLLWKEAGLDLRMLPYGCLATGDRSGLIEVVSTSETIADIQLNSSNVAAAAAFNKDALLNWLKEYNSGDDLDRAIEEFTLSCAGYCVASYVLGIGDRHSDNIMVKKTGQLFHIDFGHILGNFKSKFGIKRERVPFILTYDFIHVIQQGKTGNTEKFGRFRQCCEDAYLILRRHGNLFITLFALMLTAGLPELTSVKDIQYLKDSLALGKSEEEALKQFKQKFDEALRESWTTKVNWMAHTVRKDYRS
For the compound `Cc1ccc(OC(C)c2cc(C)cc3c(=O)nc(N4CCOCC4)oc23)cc1` (stereo unspecified), the pIC50 was < 4.70.

Turning to `Cc1cc(C(C)Nc2c(F)cccc2F)c2oc(N3CCOCC3)nc(=O)c2c1` (stereo unspecified), the pIC50 is 5.91.

As for `Cc1cc(C(C)Nc2ccc(F)cc2F)c2oc(N3CCOCC3)nc(=O)c2c1` (stereo unspecified), the pIC50 is 6.55.

Consider `Cc1cc(C(C)Oc2ccccc2)c2oc(N3CCOCC3)nc(=O)c2c1` (stereo unspecified), for which the pIC50 is 5.85.

For the compound `Cc1cccc(OC(C)c2cc(C)cc3c(=O)nc(N4CCOCC4)oc23)c1` (stereo unspecified), the pIC50 was 5.61.

Turning to `Cc1cc(C(C)Oc2cc(C)c(Cl)c(C)c2)c2oc(N3CCOCC3)nc(=O)c2c1` (stereo unspecified), the pIC50 is < 4.70.

With `Cc1cc(C(C)Nc2cccc(Cl)c2)c2oc(N3CCOCC3)nc(=O)c2c1` (stereo unspecified), the pIC50 was 7.14.

With `Cc1cc(C(C)Nc2cc(F)cc(F)c2)c2oc(N3CCOCC3)nc(=O)c2c1` (stereo unspecified), the pIC50 was 6.82.

With `Cc1cc(C(C)Nc2ccccc2Cl)c2oc(N3CCOCC3)nc(=O)c2c1` (stereo unspecified), the pIC50 is 6.87.

Turning to `Cc1cc(C(C)Nc2ccc(F)c(F)c2)c2oc(N3CCOCC3)nc(=O)c2c1` (stereo unspecified), the pIC50 was 7.20.

As to `Cc1cc(C(C)Nc2cccc3ccccc23)c2oc(N3CCOCC3)nc(=O)c2c1` (stereo unspecified), the pIC50 was 7.31.

As to `COc1cccc(OC(C)c2cc(C)cc3c(=O)nc(N4CCOCC4)oc23)c1` (stereo unspecified), the pIC50 is 5.73.

In the case of `Cc1cc(C(C)Nc2ccc(Br)cc2)c2oc(N3CCOCC3)nc(=O)c2c1` (stereo unspecified), the pIC50 is 4.90.

With `Cc1cc(C(C)Oc2ccccc2C)c2oc(N3CCOCC3)nc(=O)c2c1` (stereo unspecified), the pIC50 is 6.64.

Take `COc1ccc(OC(C)c2cc(C)cc3c(=O)nc(N4CCOCC4)oc23)cc1` (stereo unspecified): the pIC50 was < 4.70.

With `Cc1cc(C(C)Nc2cc(F)ccc2F)c2oc(N3CCOCC3)nc(=O)c2c1` (stereo unspecified), the pIC50 is 7.15.

In the case of `Cc1cc(C(C)Nc2cccc(Cl)c2F)c2oc(N3CCOCC3)nc(=O)c2c1` (stereo unspecified), the pIC50 is 6.57.

As for `Cc1cc(C(C)Oc2ccc(Cl)c(C)c2)c2oc(N3CCOCC3)nc(=O)c2c1` (stereo unspecified), the pIC50 was < 4.70.

Consider `Cc1cc(C(C)Nc2ccccc2)c2oc(N3CCOCC3)nc(=O)c2c1` (stereo unspecified), for which the pIC50 is 6.62.

A further assay concerns the target T1, Phosphatidylinositol 4,5-bisphosphate 3-kinase catalytic subunit delta isoform (Homo sapiens) (UniProt O00329).
T1 sequence (whole entry): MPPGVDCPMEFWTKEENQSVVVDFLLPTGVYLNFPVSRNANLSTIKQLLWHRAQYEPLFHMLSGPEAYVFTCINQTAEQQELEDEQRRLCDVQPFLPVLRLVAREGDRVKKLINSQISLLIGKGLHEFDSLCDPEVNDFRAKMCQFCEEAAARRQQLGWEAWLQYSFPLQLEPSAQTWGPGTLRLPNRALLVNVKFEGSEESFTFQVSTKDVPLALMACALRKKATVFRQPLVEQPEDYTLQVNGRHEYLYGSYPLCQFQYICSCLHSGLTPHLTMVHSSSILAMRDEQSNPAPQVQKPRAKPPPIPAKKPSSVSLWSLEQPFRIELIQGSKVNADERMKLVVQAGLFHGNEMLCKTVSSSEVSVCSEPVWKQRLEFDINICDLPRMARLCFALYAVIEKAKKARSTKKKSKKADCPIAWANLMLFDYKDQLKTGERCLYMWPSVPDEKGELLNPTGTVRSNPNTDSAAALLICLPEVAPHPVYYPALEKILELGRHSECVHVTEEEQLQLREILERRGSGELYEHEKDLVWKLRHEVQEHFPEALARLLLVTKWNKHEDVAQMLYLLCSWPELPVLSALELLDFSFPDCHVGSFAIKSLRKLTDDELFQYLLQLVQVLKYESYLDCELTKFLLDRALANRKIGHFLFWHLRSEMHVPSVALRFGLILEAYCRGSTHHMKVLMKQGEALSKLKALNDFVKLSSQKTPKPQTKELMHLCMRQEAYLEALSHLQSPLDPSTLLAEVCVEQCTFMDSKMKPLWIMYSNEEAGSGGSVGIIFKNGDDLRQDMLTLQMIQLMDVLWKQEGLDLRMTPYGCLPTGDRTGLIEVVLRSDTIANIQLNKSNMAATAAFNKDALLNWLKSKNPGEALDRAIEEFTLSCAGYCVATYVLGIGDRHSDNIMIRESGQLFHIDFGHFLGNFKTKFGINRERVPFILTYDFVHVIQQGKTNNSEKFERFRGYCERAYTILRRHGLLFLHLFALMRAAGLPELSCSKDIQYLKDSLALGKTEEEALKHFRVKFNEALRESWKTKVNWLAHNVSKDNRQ
The experiment in a line: Inhibition of PI3Kdelta (unknown origin) at 10 uM relative to control.
For `Cc1cc(C(C)Nc2ccccc2)c2oc(N3CCOCC3)nc(=O)c2c1` (stereo unspecified), the inhibition turned out to be 87%.

The target in another assay is DNA-dependent protein kinase catalytic subunit (Homo sapiens, UniProt P78527). The experiment in a line: Inhibition of DNA-PK (unknown origin) in the presence of ATP.
DNA-dependent protein kinase catalytic subunit, sequence (P78527 whole entry): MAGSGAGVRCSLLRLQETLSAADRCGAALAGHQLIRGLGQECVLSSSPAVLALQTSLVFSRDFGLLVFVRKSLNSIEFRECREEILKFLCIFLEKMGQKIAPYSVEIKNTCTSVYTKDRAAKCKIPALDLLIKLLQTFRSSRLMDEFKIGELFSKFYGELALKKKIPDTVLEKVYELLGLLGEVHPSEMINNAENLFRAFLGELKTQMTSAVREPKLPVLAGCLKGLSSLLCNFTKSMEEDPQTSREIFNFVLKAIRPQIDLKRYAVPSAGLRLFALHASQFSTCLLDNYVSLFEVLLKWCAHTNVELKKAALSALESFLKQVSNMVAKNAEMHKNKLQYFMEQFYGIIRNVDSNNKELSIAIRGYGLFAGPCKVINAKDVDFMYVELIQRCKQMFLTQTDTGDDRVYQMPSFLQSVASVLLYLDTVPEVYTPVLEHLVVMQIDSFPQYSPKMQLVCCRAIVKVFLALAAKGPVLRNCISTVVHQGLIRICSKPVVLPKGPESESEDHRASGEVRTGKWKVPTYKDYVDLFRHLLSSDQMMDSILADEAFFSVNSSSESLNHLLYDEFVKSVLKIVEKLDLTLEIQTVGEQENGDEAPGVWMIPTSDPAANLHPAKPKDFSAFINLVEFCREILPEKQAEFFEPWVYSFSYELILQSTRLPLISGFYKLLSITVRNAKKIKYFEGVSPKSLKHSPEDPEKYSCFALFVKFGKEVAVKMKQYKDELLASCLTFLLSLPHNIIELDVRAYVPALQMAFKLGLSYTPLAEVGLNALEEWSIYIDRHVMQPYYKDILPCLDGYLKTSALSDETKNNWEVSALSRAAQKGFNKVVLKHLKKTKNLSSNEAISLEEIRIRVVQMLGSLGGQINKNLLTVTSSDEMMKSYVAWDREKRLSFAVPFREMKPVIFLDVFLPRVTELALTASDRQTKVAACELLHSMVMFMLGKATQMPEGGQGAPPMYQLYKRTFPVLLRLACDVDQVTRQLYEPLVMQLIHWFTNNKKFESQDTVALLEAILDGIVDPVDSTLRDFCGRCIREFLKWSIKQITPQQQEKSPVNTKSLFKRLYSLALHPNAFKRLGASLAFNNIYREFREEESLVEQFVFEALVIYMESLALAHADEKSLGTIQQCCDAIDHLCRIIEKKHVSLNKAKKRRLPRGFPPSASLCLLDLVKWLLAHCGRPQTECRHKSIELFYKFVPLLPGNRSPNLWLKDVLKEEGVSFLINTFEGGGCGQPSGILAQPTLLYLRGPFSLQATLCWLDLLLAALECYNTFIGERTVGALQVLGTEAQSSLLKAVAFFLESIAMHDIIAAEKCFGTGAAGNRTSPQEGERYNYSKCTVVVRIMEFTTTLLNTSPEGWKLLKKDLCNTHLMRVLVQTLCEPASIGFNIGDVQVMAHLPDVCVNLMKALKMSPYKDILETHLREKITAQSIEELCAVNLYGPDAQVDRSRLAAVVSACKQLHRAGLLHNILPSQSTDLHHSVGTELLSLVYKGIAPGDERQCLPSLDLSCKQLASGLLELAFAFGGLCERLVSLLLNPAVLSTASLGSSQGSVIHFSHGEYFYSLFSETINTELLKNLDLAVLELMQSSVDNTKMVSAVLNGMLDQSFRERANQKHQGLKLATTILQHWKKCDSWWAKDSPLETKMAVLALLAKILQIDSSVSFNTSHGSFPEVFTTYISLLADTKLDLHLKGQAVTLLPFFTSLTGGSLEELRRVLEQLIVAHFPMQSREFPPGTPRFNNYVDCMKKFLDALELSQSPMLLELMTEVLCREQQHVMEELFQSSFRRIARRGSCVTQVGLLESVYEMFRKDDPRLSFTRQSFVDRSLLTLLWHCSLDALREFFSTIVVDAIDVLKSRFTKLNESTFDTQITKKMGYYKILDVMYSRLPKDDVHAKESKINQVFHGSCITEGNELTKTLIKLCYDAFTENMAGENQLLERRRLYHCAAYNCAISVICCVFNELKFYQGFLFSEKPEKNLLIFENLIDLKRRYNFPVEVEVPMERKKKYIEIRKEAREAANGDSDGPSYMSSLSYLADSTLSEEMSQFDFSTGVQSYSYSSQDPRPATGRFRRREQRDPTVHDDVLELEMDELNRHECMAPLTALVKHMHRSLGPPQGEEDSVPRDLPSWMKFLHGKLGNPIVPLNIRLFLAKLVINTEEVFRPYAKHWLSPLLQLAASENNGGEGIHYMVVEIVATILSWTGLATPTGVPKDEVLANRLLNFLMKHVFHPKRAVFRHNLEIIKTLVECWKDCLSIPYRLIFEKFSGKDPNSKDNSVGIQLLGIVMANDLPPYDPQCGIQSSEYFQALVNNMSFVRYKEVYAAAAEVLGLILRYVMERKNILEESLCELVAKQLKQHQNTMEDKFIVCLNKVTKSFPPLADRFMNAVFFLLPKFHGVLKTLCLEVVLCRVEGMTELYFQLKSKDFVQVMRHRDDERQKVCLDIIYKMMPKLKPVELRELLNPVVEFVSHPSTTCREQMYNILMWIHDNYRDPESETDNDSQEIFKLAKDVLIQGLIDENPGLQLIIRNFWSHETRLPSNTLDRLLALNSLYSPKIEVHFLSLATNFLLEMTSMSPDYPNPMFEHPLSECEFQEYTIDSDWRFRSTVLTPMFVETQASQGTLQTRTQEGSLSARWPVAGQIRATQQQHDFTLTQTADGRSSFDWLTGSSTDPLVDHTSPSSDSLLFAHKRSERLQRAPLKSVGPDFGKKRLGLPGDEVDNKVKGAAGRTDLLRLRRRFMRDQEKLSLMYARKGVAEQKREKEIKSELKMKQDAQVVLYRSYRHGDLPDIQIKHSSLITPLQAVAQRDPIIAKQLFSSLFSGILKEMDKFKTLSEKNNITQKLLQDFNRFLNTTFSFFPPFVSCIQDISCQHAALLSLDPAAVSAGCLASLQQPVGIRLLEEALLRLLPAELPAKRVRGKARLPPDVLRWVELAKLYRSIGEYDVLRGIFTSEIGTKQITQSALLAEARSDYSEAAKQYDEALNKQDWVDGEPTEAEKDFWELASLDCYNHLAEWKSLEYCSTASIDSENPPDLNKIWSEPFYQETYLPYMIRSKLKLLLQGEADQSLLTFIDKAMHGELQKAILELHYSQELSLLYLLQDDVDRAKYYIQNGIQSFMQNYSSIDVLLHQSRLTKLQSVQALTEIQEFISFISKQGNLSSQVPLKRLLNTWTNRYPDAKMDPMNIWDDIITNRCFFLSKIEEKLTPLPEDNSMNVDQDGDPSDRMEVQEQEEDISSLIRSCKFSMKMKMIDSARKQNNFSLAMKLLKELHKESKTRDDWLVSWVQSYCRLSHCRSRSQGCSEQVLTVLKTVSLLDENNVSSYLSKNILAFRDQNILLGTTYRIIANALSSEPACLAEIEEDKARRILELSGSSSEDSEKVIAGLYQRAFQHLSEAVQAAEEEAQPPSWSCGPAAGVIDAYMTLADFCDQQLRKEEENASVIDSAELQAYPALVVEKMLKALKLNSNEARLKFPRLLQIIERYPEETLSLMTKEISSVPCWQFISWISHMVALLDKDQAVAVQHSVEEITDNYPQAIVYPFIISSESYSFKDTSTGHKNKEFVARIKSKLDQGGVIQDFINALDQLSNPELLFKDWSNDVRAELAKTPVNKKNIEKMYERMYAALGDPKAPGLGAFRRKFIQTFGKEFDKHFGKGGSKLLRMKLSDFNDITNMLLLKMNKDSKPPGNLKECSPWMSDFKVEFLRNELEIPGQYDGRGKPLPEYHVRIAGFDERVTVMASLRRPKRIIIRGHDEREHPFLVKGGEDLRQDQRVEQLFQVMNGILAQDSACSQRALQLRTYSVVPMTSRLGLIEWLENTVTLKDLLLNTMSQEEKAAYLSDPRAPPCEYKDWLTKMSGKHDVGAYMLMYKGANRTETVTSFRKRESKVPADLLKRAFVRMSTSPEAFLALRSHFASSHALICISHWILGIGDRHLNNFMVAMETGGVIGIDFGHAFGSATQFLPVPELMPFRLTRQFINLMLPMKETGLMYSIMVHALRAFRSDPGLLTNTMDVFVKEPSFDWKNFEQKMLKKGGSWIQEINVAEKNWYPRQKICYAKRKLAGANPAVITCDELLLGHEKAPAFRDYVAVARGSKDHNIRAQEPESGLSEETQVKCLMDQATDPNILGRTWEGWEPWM
Regarding `Cc1cc(C(C)Nc2ccccc2)c2oc(N3CCOCC3)cc(=O)c2c1` (stereo unspecified), the pIC50 was 6.92.
